Test systems include SK-MEL-5 melanoma; U251 CNS; SK-MEL-2 melanoma; ACHN renal; SW-620 colon; NCI/ADR-RES ovarian; CAKI-1 renal; COLO 205 colon; KM12 colon; DU-145 prostate; SF-268 CNS; A549 NSCLC; HT29 colon; HCT-116 colon; MCF7 breast; SF-295 CNS; SK-OV-3 ovarian; HS 578T breast; RPMI-8226 leukemia.
Common to all, as to test: NCI tumour cell line growth inhibition, 48 h

The values that follow come from PubChem BioAssay (NCI).

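All cell lines were grown in 96-well plates and treated with compound for 48 hours. TGI denotes the concentration required for complete inhibition of growth.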

In the case of `CCOC(=O)Cc1nnc2n(-c3ccccc3)c(=O)c3ccccc3n12`, the TGI with SK-MEL-5 melanoma, with U251 CNS, with SK-MEL-2 melanoma, with ACHN renal, in the experiment on SW-620 colon and in the experiment with NCI/ADR-RES ovarian was more than 100 µM in each case. Moreover, the TGI in the experiment on CAKI-1 renal is 43.3 µM; in the experiment on COLO 205 colon, more than 100 µM; with KM12 colon, more than 100 µM; in the experiment with DU-145 prostate, more than 100 µM; with SF-268 CNS it was more than 100 µM; in the experiment with A549 NSCLC it was more than 100 µM. Further, the TGI in the experiment with HT29 colon, in the experiment with HCT-116 colon, with MCF7 breast, with SF-295 CNS and in the experiment with SK-OV-3 ovarian was more than 100 µM in each case.
In the case of `CNC(=O)C1(C#N)C(c2ccccc2)C(C#N)(C(=O)NC)C1c1ccccc1` (centres undefined), the TGI in the experiment on SK-MEL-5 melanoma, in the experiment with U251 CNS, in the experiment with SK-MEL-2 melanoma, in the experiment with ACHN renal, in the experiment on HS 578T breast and with SW-620 colon was more than 100 µM each time. Further, the TGI in the experiment on NCI/ADR-RES ovarian, in the experiment with CAKI-1 renal, with COLO 205 colon, in the experiment with RPMI-8226 leukemia, with KM12 colon and in the experiment with SF-268 CNS was more than 100 µM throughout. Besides, the TGI in the experiment on A549 NSCLC, with HT29 colon, in the experiment on HCT-116 colon, with MCF7 breast, in the experiment with SF-295 CNS and in the experiment on SK-OV-3 ovarian was more than 100 µM in each case.
In the case of `C=CCC1(Sc2ccccn2)Sc2ccc3ccccc3c2-c2c(ccc3ccccc23)S1`, the TGI in the experiment on SK-MEL-5 melanoma, with U251 CNS, in the experiment on SK-MEL-2 melanoma, in the experiment with ACHN renal, with HS 578T breast and with SW-620 colon was more than 100 µM in each case. Further, the TGI in the experiment with NCI/ADR-RES ovarian, with CAKI-1 renal, in the experiment with COLO 205 colon, in the experiment with KM12 colon, in the experiment with DU-145 prostate and in the experiment with SF-268 CNS was more than 100 µM throughout. Further, the TGI with A549 NSCLC, in the experiment with HT29 colon, in the experiment with HCT-116 colon, with MCF7 breast, in the experiment with SF-295 CNS and with SK-OV-3 ovarian was more than 100 µM throughout.
As to `Cc1cc(=O)oc2c(CNC(CO)C(=O)O)c(O)ccc12` (centres undefined), the TGI in the experiment on SK-MEL-5 melanoma, in the experiment on U251 CNS, in the experiment with SK-MEL-2 melanoma, in the experiment with ACHN renal, in the experiment on HS 578T breast and in the experiment with SW-620 colon was more than 100 µM in each case. Besides, the TGI with NCI/ADR-RES ovarian, in the experiment with CAKI-1 renal, with COLO 205 colon, in the experiment on RPMI-8226 leukemia, in the experiment on KM12 colon and in the experiment with DU-145 prostate was more than 100 µM each time. The TGI in the experiment on SF-268 CNS, in the experiment with A549 NSCLC, with HT29 colon, in the experiment with HCT-116 colon, in the experiment on MCF7 breast and in the experiment with SF-295 CNS was more than 100 µM in each case. Further, the TGI in the experiment with SK-OV-3 ovarian is more than 100 µM.
On to `CN(C)Cc1cc(C(=O)/C=C/c2ccc(Cl)c(Cl)c2)cc(CN(C)C)c1O`, for which the TGI with SK-MEL-5 melanoma stood at 3.37 µM; in the experiment with U251 CNS it was 13.6 µM; with ACHN renal, 11.6 µM; with HS 578T breast, 8.74 µM; with SW-620 colon, 3.19 µM; in the experiment with NCI/ADR-RES ovarian, 7.85 µM. Also, the TGI in the experiment on CAKI-1 renal is 4.08 µM; in the experiment with COLO 205 colon, 2.65 µM; in the experiment with RPMI-8226 leukemia, more than 100 µM; in the experiment with KM12 colon it was 4.73 µM; in the experiment on DU-145 prostate, 15.9 µM; with SF-268 CNS, 13.2 µM. Besides, the TGI with A549 NSCLC turned out to be 8.47 µM; with HT29 colon, 2.79 µM; in the experiment with HCT-116 colon, 12.1 µM; in the experiment with MCF7 breast it was 12.3 µM; with SF-295 CNS, 12.1 µM.
`N#CC(C#N)=C/C=C/c1c(Cl)cccc1Cl`: the TGI came to 3.28 µM with SK-MEL-5 melanoma; 4.08 µM in the experiment on U251 CNS; 3.47 µM with SK-MEL-2 melanoma; 3.19 µM with ACHN renal; 5.55 µM in the experiment on HS 578T breast; 4.21 µM in the experiment with SW-620 colon. The TGI worked out at 4.98 µM in the experiment on NCI/ADR-RES ovarian; 4.55 µM in the experiment on CAKI-1 renal; 3.17 µM with COLO 205 colon; 7.46 µM with RPMI-8226 leukemia; 3.02 µM in the experiment with KM12 colon; 3.2 µM with DU-145 prostate. Besides, the TGI in the experiment with SF-268 CNS is 4.07 µM; in the experiment on A549 NSCLC, 7.22 µM; in the experiment on HT29 colon, 3.25 µM; with HCT-116 colon, 2.62 µM; with MCF7 breast, 7.04 µM; with SF-295 CNS, 4.38 µM. In the experiment with SK-OV-3 ovarian, this compound registered a TGI of 5.64 µM.
`CNC1c2ccccc2C(=O)c2cc3c(cc21)OCCOCCOCCOCCO3` (centres undefined): the TGI in the experiment with SK-MEL-5 melanoma, in the experiment with U251 CNS, in the experiment on ACHN renal, in the experiment on HS 578T breast, in the experiment on SW-620 colon and in the experiment on NCI/ADR-RES ovarian was more than 100 µM each time. Moreover, the TGI in the experiment with COLO 205 colon, in the experiment on RPMI-8226 leukemia, in the experiment with KM12 colon, in the experiment on SF-268 CNS, in the experiment on A549 NSCLC and in the experiment with HT29 colon was more than 100 µM each time. Moreover, the TGI in the experiment with HCT-116 colon, with MCF7 breast, in the experiment on SF-295 CNS and with SK-OV-3 ovarian was more than 100 µM throughout.
